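Interpolation was linear, between the two tested concentrations surrounding the appropriate level; five concentrations were tested over 48 hours in 96-well plates. GI50 = concentration required for 50% inhibition of growth.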 The source made the active and inactive calls. Rule as the data show it: active = GI50 up to about 1.1 µM and inactive = higher.
Legend:
Experiment in all cases: NCI anticancer screen, dose series, 48 h
HL-60 = system: HL-60
SK-MEL-28 = system: SK-MEL-28
UO-31 = system: UO-31
NCI-H226 = system: NCI-H226
HOP-92 = system: HOP-92
RXF 393 = system: RXF 393
RPMI-8226 = system: RPMI-8226
SK-OV-3 = system: SK-OV-3
UACC-257 = system: UACC-257
OVCAR-4 = system: OVCAR-4
SNB-75 = system: SNB-75
SNB-78 = system: SNB-78
IGROV-1 = system: IGROV-1
UACC-62 = system: UACC-62
SF-539 = system: SF-539
KM12 = system: KM12
DLD-1 = system: DLD-1
KM-20L2 = system: KM-20L2
SN12C = system: SN12C
SF-295 = system: SF-295
A498 = system: A498
SK-MEL-2 = system: SK-MEL-2
LXFL 529 = system: LXFL 529
OVCAR-5 = system: OVCAR-5
SR = system: SR
NCI-H522 = system: NCI-H522
CCRF-CEM = system: CCRF-CEM
SK-MEL-5 = system: SK-MEL-5
M19-MEL = system: M19-MEL
SNB-19 = system: SNB-19
HCT-15 = system: HCT-15
NCI-H23 = system: NCI-H23
LOX IMVI = system: LOX IMVI
MOLT-4 = system: MOLT-4
ACHN = system: ACHN
COLO 205 = system: COLO 205
DMS-273 = system: DMS-273
HCC 2998 = system: HCC 2998
M14 = system: M14
NCI-H460 = system: NCI-H460
HOP-62 = system: HOP-62
HCT-116 = system: HCT-116
A549 = system: A549
SW-620 = system: SW-620
786-0 = system: 786-0
EKVX = system: EKVX
OVCAR-3 = system: OVCAR-3
CAKI-1 = system: CAKI-1
HT-29 = system: HT-29
Malme-3M = system: Malme-3M
OVCAR-8 = system: OVCAR-8
TK-10 = system: TK-10
K562 = system: K562
U-251 = system: U-251
HOP-18 = system: HOP-18
SF-268 = system: SF-268
DMS-114 = system: DMS-114

O=C(/C=C/c1ccc(OCC(=O)N2CCN(c3ccccc3)CC2)cc1)c1ccccc1 was tested, and the GI50 (HL-60) was 4.95 µM (inactive), the GI50 (SK-MEL-28) was 16 µM (inactive) and the GI50 (UO-31) was 15.2 µM (inactive). For the same compound, the GI50 (NCI-H226) was 16.9 µM (inactive), the GI50 (HOP-92) was 29 µM (inactive) and the GI50 (RXF 393) was 7.85 µM (inactive). The GI50 (RPMI-8226) was 3.75 µM (inactive), the GI50 (SK-OV-3) was 38.1 µM (inactive) and the GI50 (UACC-257) was 17.1 µM (inactive). The GI50 (OVCAR-4) was 14.3 µM (inactive), the GI50 (SNB-75) was 17.9 µM (inactive) and the GI50 (SNB-78) was > 44.5 µM (inactive). For the same compound, the GI50 (IGROV-1) was 32.9 µM (inactive), the GI50 (UACC-62) was 17.8 µM (inactive) and the GI50 (SF-539) was 16.9 µM (inactive). For the same compound, the GI50 (KM12) was 4.52 µM (inactive), the GI50 (DLD-1) was 7.31 µM (inactive) and the GI50 (KM-20L2) was 8.95 µM (inactive). For the same compound, the GI50 (SN12C) was 19.7 µM (inactive), the GI50 (SF-295) was 23.3 µM (inactive) and the GI50 (A498) was > 56.8 µM (inactive). The GI50 (SK-MEL-2) was > 26.5 µM (inactive), the GI50 (LXFL 529) was 19.9 µM (inactive) and the GI50 (OVCAR-5) was 48.8 µM (inactive). The GI50 (SR) was 2.72 µM (inactive), the GI50 (NCI-H522) was 3.6 µM (inactive) and the GI50 (CCRF-CEM) was 2.84 µM (inactive). The GI50 (SK-MEL-5) was 7.57 µM (inactive), the GI50 (M19-MEL) was 11.3 µM (inactive) and the GI50 (SNB-19) was 20.1 µM (inactive). For the same compound, the GI50 (HCT-15) was 7.5 µM, the GI50 (NCI-H23) was 17.8 µM (inactive) and the GI50 (LOX IMVI) was 3.68 µM (inactive). For the same compound, the GI50 (MOLT-4) was 3.05 µM (inactive), the GI50 (ACHN) was 19.7 µM (inactive) and the GI50 (COLO 205) was 26.1 µM (inactive). For the same compound, the GI50 (DMS-273) was 2.99 µM (inactive), the GI50 (HCC 2998) was 45.4 µM (inactive) and the GI50 (M14) was 29.8 µM (inactive). For the same compound, the GI50 (NCI-H460) was > 46.1 µM (inactive), the GI50 (HOP-62) was 32.8 µM (inactive) and the GI50 (HCT-116) was 11.7 µM (inactive). For the same compound, the GI50 (A549) was 44.4 µM (inactive), the GI50 (SW-620) was 3.13 µM (inactive) and the GI50 (786-0) was 14.6 µM (inactive). For the same compound, the GI50 (EKVX) was 34.7 µM (inactive), the GI50 (OVCAR-3) was 13.2 µM (inactive) and the GI50 (CAKI-1) was 93.3 µM (inactive). The GI50 (HT-29) was 4.33 µM (inactive), the GI50 (Malme-3M) was 15 µM (inactive) and the GI50 (OVCAR-8) was 10.9 µM (inactive). For the same compound, the GI50 (TK-10) was 45.7 µM (inactive), the GI50 (K562) was 3.18 µM (inactive) and the GI50 (U-251) was 7.14 µM (inactive). For the same compound, the GI50 (HOP-18) was > 50 µM (inactive) and the GI50 (SF-268) was 26.7 µM (inactive).

In the case of CC(C)(C)C1C=C(Sc2ccccc2)C(=O)O1 (stereo not given), the GI50 (HL-60) is reported as 24.9 µM (inactive), the GI50 (SK-MEL-28) is reported as 83.6 µM (inactive) and the GI50 (UO-31) is reported as 33.7 µM (inactive). The GI50 (NCI-H226) was 54.7 µM (inactive), the GI50 (HOP-92) was 29.2 µM (inactive) and the GI50 (RPMI-8226) was 36 µM (inactive). The GI50 (SK-OV-3) was 58.9 µM (inactive), the GI50 (UACC-257) was 31.8 µM (inactive) and the GI50 (OVCAR-4) was 63.8 µM (inactive). For the same compound, the GI50 (SNB-75) was 22.8 µM (inactive), the GI50 (SNB-78) was 63 µM (inactive) and the GI50 (IGROV-1) was 48.9 µM (inactive). For the same compound, the GI50 (UACC-62) was 36.7 µM (inactive), the GI50 (SF-539) was 44.1 µM (inactive) and the GI50 (KM12) was 40.6 µM (inactive). For the same compound, the GI50 (DLD-1) was 42.5 µM (inactive), the GI50 (KM-20L2) was 39.1 µM (inactive) and the GI50 (SN12C) was 36.2 µM (inactive). The GI50 (SF-295) was 35.2 µM (inactive), the GI50 (A498) was 41.9 µM (inactive) and the GI50 (SK-MEL-2) was > 100 µM (inactive). The GI50 (LXFL 529) was 34.8 µM (inactive), the GI50 (OVCAR-5) was 34.2 µM (inactive) and the GI50 (NCI-H522) was 32.7 µM (inactive). For the same compound, the GI50 (CCRF-CEM) was 37.4 µM (inactive), the GI50 (M19-MEL) was 48.9 µM (inactive) and the GI50 (SNB-19) was 57.9 µM (inactive). The GI50 (HCT-15) was 43.3 µM, the GI50 (NCI-H23) was 33.5 µM (inactive) and the GI50 (LOX IMVI) was 37.6 µM (inactive). The GI50 (MOLT-4) was 30.3 µM (inactive), the GI50 (ACHN) was 32.1 µM (inactive) and the GI50 (COLO 205) was 26.9 µM (inactive). For the same compound, the GI50 (DMS-273) was 40.7 µM (inactive), the GI50 (HCC 2998) was 58.9 µM (inactive) and the GI50 (M14) was 62.1 µM (inactive). For the same compound, the GI50 (NCI-H460) was 40.4 µM (inactive), the GI50 (HOP-62) was 45.4 µM (inactive) and the GI50 (HCT-116) was 40.1 µM (inactive). The GI50 (A549) was 33.3 µM (inactive), the GI50 (DMS-114) was 32.8 µM (inactive) and the GI50 (SW-620) was 80.5 µM (inactive). The GI50 (786-0) was 68.9 µM (inactive), the GI50 (EKVX) was 47 µM (inactive) and the GI50 (OVCAR-3) was 42.8 µM (inactive). The GI50 (CAKI-1) was 45.6 µM (inactive), the GI50 (HT-29) was 49.8 µM (inactive) and the GI50 (Malme-3M) was 97.5 µM (inactive). For the same compound, the GI50 (OVCAR-8) was 37.3 µM (inactive), the GI50 (TK-10) was 60.5 µM (inactive) and the GI50 (K562) was 49.3 µM (inactive). The GI50 (U-251) was 54 µM (inactive), the GI50 (HOP-18) was 75.9 µM (inactive) and the GI50 (SF-268) was 37.2 µM (inactive).
